Laboratory results taken from patent US5698521A, “Native calcitonin mimetics” (ZymoGenetics, Inc., priority 1995, dated 1997).
One block for each compound: values may come before it. Where a SMILES comes first, the peptide text is derived from it. [ ]: non-standard residue; d: D form. ξ: configuration not given here. ξPro(4ξ-Me) = CC1CNC(C(=O)O)C1; ξIva = CCC(C)(N)C(=O)O; Aib = CC(C)(N)C(=O)O

How the values were obtained:
[1] = system: osteoclasts in mouse calvariae; assay: Calvaria histology (TRAP-stained osteoclast number and size); format: cell-based
Text: To confirm the findings in the calvarial bone resorption assay employing calcium release from culture mouse calvariae, selected bones were fixed in 10% neutral buffered formalin and demineralized in 5% formic acid with 5% formalin. The bones were dehydrated through an ascending series of ethanol concentrations, infiltrated in glycol methacrylate, and embedded using a JB-4 embedding kit (PolySciences, Warrington, Pa.) (Liu and Kalu, J. Bone Miner. Res., 5:973-82, 1990). Cross sections of calvariae cut at 5 μm were obtained and stained for tartrate-resistant acid phosphatase (TRAP) activity and counterstained with methyl green and thionin for cell morphology (Liu and Kalu, J. Bone. Miner. Res. 1990, supra). Osteoclasts were identified by TRAP stain, multinucleation, large cell size, and irregular cell shape. The number of osteoclasts were counted from endocranial and ectocranial bone surfaces and expressed as number/mm perimeter. The size of all the osteoclasts counted was also measured using a Bone Morphometry program (Lui and Kalu, supra.; Bain et al., J. Done Miner. Res. 8:435-42, 1993). […] This PTH-induced increase was suppressed by treatment with human calcitonin.
Calcitonin mimetic compounds were evaluated in a similar fashion for their ability to suppress PTH-induced increases in osteoclast number and size. Cell toxicity (or death) was also evaluated morphologically. […]

[2] = Solubility of isolated powders in organic solvents; format: physicochemical
[3] = system: PTH-Induced Bone Resorption in Mouse Calvariae; assay: Calvarial assay: PTH-induced bone resorption (calcium release); format: cell-based; settings: 1 nM PTH 1-34, 72 hours, read-out: Inhibition of Ca++ Release EC50
Method: Calvaria from 4-day old neonatal CD-1 mice (pregnant mice received from Charles River Laboratories, Wilmington, Mass.) were trimmed with fine-tipped scissors to leave the parietal regions, including the sagittal suture. These trimmed bones were placed singly per well into 6-well cell culture cluster plates (Costar, Pleasanton, Calif.) with 1 ml/well of growth medium (DMEM, BioWhittaker, Walkersville, Md.) with 4.5 g/L glucose, 0.29 mg/ml L-glutamine, 1 mM sodium pyruvate, 15% heat-inactivated horse serum, and antibiotics (penicillin-G 50 μg/ml, streptomycin 50 μg/ml, and neomycin 100 μg/ml), and rocked gently (RedRocker™, model PR50-115V, Hoefer, San Francisco, Calif.) at 37° C. in a 5% CO2 humidified incubator for 24 hours preincubation.
Following incubation, medium was removed and replaced with 1.5 ml/well of growth medium containing 1 nM parathyroid hormone (PTH) 1-34 (Sigma) to stimulate bone resorption. For evaluation of the ability of calcitonin mimetics to inhibit PTH induced bone resorption, mimetic compounds in DMSO were added to the growth medium at concentrations ranging from 1-240 μg/ml (final assay concentration of DMSO less than or equal to 1%). In each experiment human calcitonin (0.02-20 nM, 0.2-2 nM preferred) was added to PTH treated bones as a positive control. […]

[4] = biological target: T1, human calcitonin receptor (Homo sapiens, UniProt P30988); assay: CRE-luciferase induction in Hollex-1 cells (BHK 570 expressing human calcitonin receptor and CRE-luciferase reporter); format: cell-based; settings: BHK 570 cells expressing human calcitonin receptor and CRE-luciferase reporter (Hollex-1)
T1 construct: expressed in transfected cells; host or cells: BHK 570 clone KZ10-20-48 (CRE-luciferase), clone Hollex-1
T1 sequence (P30988 25-474): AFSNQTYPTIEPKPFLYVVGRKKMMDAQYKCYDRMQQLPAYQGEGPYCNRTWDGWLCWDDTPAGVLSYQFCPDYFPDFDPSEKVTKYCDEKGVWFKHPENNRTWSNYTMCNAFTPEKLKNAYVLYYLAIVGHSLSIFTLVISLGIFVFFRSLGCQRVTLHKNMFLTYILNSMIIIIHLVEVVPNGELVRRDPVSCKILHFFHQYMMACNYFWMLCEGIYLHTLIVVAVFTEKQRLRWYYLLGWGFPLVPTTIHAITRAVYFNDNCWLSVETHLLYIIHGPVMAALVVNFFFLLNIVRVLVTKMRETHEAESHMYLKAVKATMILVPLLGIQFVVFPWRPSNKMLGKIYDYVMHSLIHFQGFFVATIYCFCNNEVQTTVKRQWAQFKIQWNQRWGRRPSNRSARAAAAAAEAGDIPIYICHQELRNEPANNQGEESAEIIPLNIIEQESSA

[5] = biological target: hamster calcitonin receptor (Mesocricetus auratus, UniProt A0A3Q0D7K7); assay: CRE-luciferase induction in Boris/KZ10-3 cells (calcitonin receptor positive)
Chain of hamster calcitonin receptor (A0A3Q0D7K7 entry or part of it): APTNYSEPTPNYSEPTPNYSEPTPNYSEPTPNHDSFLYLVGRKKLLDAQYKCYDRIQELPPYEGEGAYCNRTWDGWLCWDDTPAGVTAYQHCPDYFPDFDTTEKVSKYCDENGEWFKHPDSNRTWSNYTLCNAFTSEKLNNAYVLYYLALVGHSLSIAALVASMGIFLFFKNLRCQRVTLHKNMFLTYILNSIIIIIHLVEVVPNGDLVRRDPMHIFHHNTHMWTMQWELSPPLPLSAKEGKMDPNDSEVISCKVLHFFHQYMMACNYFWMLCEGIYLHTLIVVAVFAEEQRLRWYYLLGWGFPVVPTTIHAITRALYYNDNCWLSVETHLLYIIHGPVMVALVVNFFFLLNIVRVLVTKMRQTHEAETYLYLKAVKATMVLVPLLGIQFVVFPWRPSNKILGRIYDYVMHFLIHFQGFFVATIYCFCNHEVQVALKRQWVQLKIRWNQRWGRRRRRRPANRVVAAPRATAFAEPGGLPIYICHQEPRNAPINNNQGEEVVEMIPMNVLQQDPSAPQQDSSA

[6] = biological target: T2, human glucagon receptor (Homo sapiens, UniProt P47871); assay: cell-based
T2 sequence (P47871 26-477): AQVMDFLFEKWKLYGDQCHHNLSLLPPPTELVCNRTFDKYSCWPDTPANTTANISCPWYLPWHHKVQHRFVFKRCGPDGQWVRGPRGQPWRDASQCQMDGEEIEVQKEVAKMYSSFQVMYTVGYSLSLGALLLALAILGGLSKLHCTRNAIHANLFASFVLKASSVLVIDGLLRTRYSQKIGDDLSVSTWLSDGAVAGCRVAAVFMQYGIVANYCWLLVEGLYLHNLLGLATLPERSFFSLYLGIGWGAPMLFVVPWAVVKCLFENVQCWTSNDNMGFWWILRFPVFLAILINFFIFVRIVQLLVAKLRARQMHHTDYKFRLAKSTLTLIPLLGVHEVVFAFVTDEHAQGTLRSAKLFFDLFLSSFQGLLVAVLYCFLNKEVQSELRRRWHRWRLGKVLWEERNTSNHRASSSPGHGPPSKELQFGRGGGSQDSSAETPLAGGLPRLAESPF

[7] = system: KZ10-20-48 cells (CRE-luciferase reporter); assay: CRE-luciferase induction in parent reporter line BHK/KZ10-20-48; format: cell-based, baby hamster; settings: clone KZ10-20-48, 25 mM forskolin, 4 hours; range 15-25 fold
Method: Stable transfectants were selected by growth in Dulbecco's modified Eagle's medium (DMEM) supplemented with 10% heat inactivated fetal bovine serum (HI-FBS), 2 mM L-glutamine and 1 mM sodium pyruvate containing 250 nM methotrexate (MTX) for 10-14 days. Clones were isolated, grown to confluence in opaque white microtiter plates (Dynatech, Chantilly, Va.), then treated with […], which elevates cellular cAMP through direct activation of adenylate cyclase (Berkowitz and Gilman, Proc. Nat. Acad. Sci. USA 87:5258-62, 1990) for 4 hours at 37° C., 5% CO2 . Following incubation, cells were lysed and assayed for luciferase induction in a Labsystems Luminoskan microtiter luminometer (Labsystems Inc., Morton Grove, Ill.) using a Promega luciferase kit (El500, Promega Corp., Madison, Wis.), as described below.

[8] = biological target: T2, human glucagon receptor; settings: KZ10-20-48/pLJ6-4-25 clone
[9] = system: KZ10-20-48/Zem 228 cells (calcitonin receptor negative); assay: CRE-luciferase induction in calcitonin receptor negative line KZ10-20-48/Zem 228 (specificity control); format: cell-based, baby hamster
[10] = system: human calcitonin receptor; assay: CRE-luciferase induction in Hollex-1 cells (BHK 570 expressing human calcitonin receptor and CRE-luciferase reporter); format: cell-based; settings: Hollex-1 clone; read-out: forskolin EC50, CRE-luciferase induction
[11] = in acetonitrile, ethyl acetate, and chloroform
[12] = in methanol, ethanol, n-butanol and dimethyl sulfoxide

Compound: parathyroid hormone (PTH) 1-34 (SVSEIQLMHNLGKHLNSMERVEWLRKKLQDVHNF; Parathyroid hormone; UniProt P01270 32-65, looked up, fragment) [PTH 1-34, stimulus of bone resorption in the calvarial assay, reference compound]
- number and size of osteoclasts (histomorphometry) ([1]; cultured mouse calvariae, calcitonin tested against the PTH-induced increase): increases in the number and size of osteoclasts

- solubility [2, 11]: slightly soluble
- solubility ([2]; in hexane): insoluble
- solubility [2, 12]: readily soluble
- EC50 [3]: 33200 nM
- EC50 [4]: 506 nM
Compound: CC[C@H](C)[C@H](NC(=O)C(C)(C)NC(=O)[C@H](CCC(N)=O)NC(=O)C(C)(CC)NC(=O)[C@H](Cc1c[nH]c2ccccc12)NC(C)=O)C(=O)N[C@H](C(=O)NC(C)(C)C(=O)N[C@@H](CC(C)C)C(=O)NC(C)(C)C(=O)N1CCC[C@H]1C(=O)N[C@@H](CCC(N)=O)C(=O)NC(C)(C)C(=O)N1CCC[C@H]1C(=O)NC(C)(C)C(=O)N1CC(C)CC1C(=O)N[C@@H](Cc1ccccc1)C(=O)NCC(=O)O)[C@@H](C)O (stereo partly drawn) [ZG 2807 A, Acetyl-Trp-Xaal-Gln-2-aminoisobutyric acid (Aib)-Ile-Thr-Aib-Leu-Aib-Pro-Gln-Aib-Pro-Aib-Xaa2-Phe-Gly] (Ac-W[ξIva]Q[Aib]IT[Aib]L[Aib]PQ[Aib]P[Aib][ξPro(4ξ-Me)]FG-OH)
- Histology ([1]; PTH-treated mouse calvariae, the cell wraps over two lines: 'Inhibition of osteoclast size'): Inhibition of osteoclast

- solubility [2, 11]: slightly soluble
- solubility ([2]; in hexane): insoluble
- solubility [2, 12]: readily soluble
- EC50 [4]: 525 nM
Compound: CC[C@H](C)[C@H](NC(=O)C(C)(C)NC(=O)[C@H](CCC(N)=O)NC(=O)C(C)(CC)NC(=O)[C@H](Cc1c[nH]c2ccccc12)NC(C)=O)C(=O)N[C@H](C(=O)NC(C)(C)C(=O)N[C@@H](CC(C)C)C(=O)NC(C)(C)C(=O)N1CCC[C@H]1C(=O)N[C@@H](CCC(N)=O)C(=O)NC(C)(C)C(=O)N1CCC[C@H]1C(=O)NC(C)(C)C(=O)N1CC(C)CC1C(=O)N[C@@H](Cc1ccccc1)C(=O)O)[C@@H](C)O (stereo partly drawn) [ZG 2807 B, Acetyl-Trp-Xaal-Gln-Aib-Ile-Thr-Aib-Leu-Aib-Pro-Gln-Aib-Pro-Aib-Xaa2-Phe] (Ac-W[ξIva]Q[Aib]IT[Aib]L[Aib]PQ[Aib]P[Aib][ξPro(4ξ-Me)]F-OH)

Compound: C=C[C@@]1(C)CC(=O)[C@]2(O)[C@@]3(C)[C@@H](O)CCC(C)(C)[C@@H]3[C@H](O)[C@H](OC(C)=O)[C@@]2(C)O1 [forskolin]
- EC50 [5]: 900 nM
- induction of luciferase ([5]; Boris/KZ10-3 clone): 25 fold
- EC50 [6]: 2100 nM
- induction of CRE-luciferase vs basal [7]: 20 fold
- induction of luciferase [8]: 35 fold
- EC50 ([9]; Mesocricetus auratus, range 0.5-1.5 μM): 600 nM
- induction of CRE-luciferase ([9]; range 20-35 fold): 30 fold
- EC50 [10]: 1200 nM
